Assay results taken from the supplement of paper PMC10307832.

Columns and labels:
Test in all cases: relative viability (nuclei count vs DMSO), 5 days (fraction); higher = more cells survive
[1] = compound: CCN1CCN(c2ccc(Nc3cc(N(C)C(=O)Nc4c(Cl)c(OC)cc(OC)c4Cl)ncn3)cc2)CC1 [BGJ398] + Nc1nc2[nH]cc(CCc3ccc(C(=O)N[C@@H](CCC(=O)O)C(=O)O)cc3)c2c(=O)[nH]1 [Pemetrexed] (partner 0.2 µM)
How it was run: (§1)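 Lung cancer cell lines in 1536-well plates got either a single drug or a fixed anchor-drug dose together with five library-drug doses (not always all listed) in √10 steps, by pin tool, on the day after seeding. Nuclei were counted after 5 days, and relative viability is the treated-to-vehicle ratio of nuclei counts. Values are medians of duplicate plates.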

[2] = compound: C1=CC2=NC=CN=C2C=C1/C=C/3\C(=O)NC(=O)S3 + Cc1nc(NC(=O)N2CCC[C@H]2C(N)=O)sc1-c1ccnc(C(C)(C)C(F)(F)F)c1 [Alpelisib] (partner 2 µM)
How it was run: as §1

[3] = compound: C1=CC2=NC=CN=C2C=C1/C=C/3\C(=O)NC(=O)S3 + CC(=O)c1c(C)c2cnc(Nc3ccc(N4CCNCC4)cn3)nc2n(C2CCCC2)c1=O [Palbociclib] (partner 0.5 µM)
How it was run: as §1

[4] = compound: CCN1CCN(c2ccc(Nc3cc(N(C)C(=O)Nc4c(Cl)c(OC)cc(OC)c4Cl)ncn3)cc2)CC1 [BGJ398] + CS(=O)(=O)N1CCN(Cc2cc3nc(-c4cccc5[nH]ncc45)nc(N4CCOCC4)c3s2)CC1 [Pictilisib] (partner 1 µM)
How it was run: as §1

Cell Line	relative viability ([1]; first compound 0.01 µM)	relative viability ([1]; first compound 0.1 µM)	relative viability ([1]; first compound 1 µM)	relative viability ([2]; first compound 0.02 µM)	relative viability ([2]; first compound 0.06325 µM)	relative viability ([2]; first compound 0.2 µM)	relative viability ([2]; first compound 0.6325 µM)	relative viability ([2]; first compound 2 µM)	relative viability ([3]; first compound 0.02 µM)	relative viability ([3]; first compound 0.06325 µM)	relative viability ([3]; first compound 0.2 µM)	relative viability ([3]; first compound 0.6325 µM)	relative viability ([3]; first compound 2 µM)	relative viability ([4]; first compound 0.01 µM)	relative viability ([4]; first compound 0.1 µM)	relative viability ([4]; first compound 0.3162 µM)	relative viability ([4]; first compound 1 µM)	relative viability ([1]; first compound 0.03162 µM)	relative viability ([1]; first compound 0.3162 µM)	relative viability ([4]; first compound 0.03162 µM)
PC-3 [JPC-3]	1.16	0.766	0.992	1.07	1.12	0.994	0.987	1.03	0.492	0.637	0.566	0.561	0.541	0.716	0.708	0.492	0.689	–	–	–
EMC-BAC-2	0.432	0.477	0.471	0.707	0.784	0.756	0.709	0.75	0.496	0.568	0.54	0.498	0.384	0.503	0.513	0.476	0.465	0.483	0.477	0.561
LK-2	0.213	0.114	0.12	1.17	1.1	1.08	0.984	0.946	0.593	0.767	0.619	0.665	0.24	0.555	0.326	0.235	0.245	0.194	0.157	0.529
NCI-H2126	0.724	0.689	0.684	0.662	0.786	0.752	0.757	0.639	0.329	0.404	0.358	0.369	0.339	0.528	0.52	0.495	0.418	0.717	0.674	0.461
NCI-H3122	0.206	0.192	0.202	0.737	0.854	0.873	0.766	0.602	0.204	0.213	0.173	0.194	0.186	0.609	0.625	0.678	0.582	0.193	0.188	0.652
NCI-H1299	–	–	–	1.07	1.1	1.05	1.02	0.993	–	–	–	–	–	0.742	0.847	0.827	0.965	–	–	0.807
NCI-H727	–	–	–	0.647	0.571	0.556	0.653	0.346	0.549	0.683	0.637	0.649	0.556	0.455	0.176	0.316	0.293	–	–	0.504
ABC-1	–	–	–	1	1.14	0.933	1.01	1.02	0.75	0.699	0.726	0.662	0.645	0.63	0.722	0.693	0.916	–	–	0.721
NCI-H1650	0.391	0.354	0.319	–	–	–	–	–	0.218	0.43	0.37	0.347	0.343	0.497	0.416	0.153	0.316	0.361	0.295	0.394
ChaGo-K-1	0.261	0.242	0.281	–	–	–	–	–	0.888	0.69	0.971	0.917	0.947	0.802	0.561	0.608	0.314	0.249	0.269	0.702
NCI-H1648	0.85	0.821	0.651	–	–	–	–	–	0.301	0.223	0.345	–	0.23	–	–	–	–	–	0.896	–
NCI-H596	0.424	0.439	0.431	0.486	0.451	0.469	0.537	0.502	–	–	–	–	–	0.367	0.355	0.389	0.321	0.476	0.477	0.416
NCI-H1563	0.749	0.754	0.433	0.962	0.941	0.964	0.941	1.01	–	–	–	–	–	0.66	0.512	0.479	0.475	0.968	0.58	0.612
A549	–	–	–	0.847	1.1	0.67	0.729	0.557	–	–	–	–	–	0.486	0.453	0.535	0.596	–	–	0.475
NCI-H522	0.987	0.876	0.856	–	–	–	–	–	1.06	1.08	0.876	0.816	0.749	–	–	–	–	0.896	0.995	–
SW 900	0.471	0.469	0.256	–	–	–	–	–	0.491	0.545	0.511	–	0.602	–	–	–	–	0.43	0.348	–
IA-LM	–	–	–	0.586	0.713	0.64	0.749	0.764	–	–	–	–	–	0.343	0.334	0.391	0.311	–	–	0.39
EBC-1	–	–	–	0.819	1.05	0.788	0.849	0.854	–	–	–	–	–	0.41	0.357	0.515	0.451	–	–	0.414
